# Test results taken from patent US7414075B2, “Composition for lowering internal lipid content” (Ajinomoto Co., Inc., priority 2003, dated 2008).
# Assays:
# Format in all cases: in vivo, rat
# male Wistar strain rats [1] = assay: Weight of liver, fat around kidney and fat around epididymis, and ratio to total body weight; conditions: 0.1 mmol per kg feed, four weeks
# Protocol: (§1) Twenty-four nine-week old male Wistar strain rats were used and divided into four groups each comprising six rats, including a control group, a 0.1 mmol/kg capsaicin group, a 0.1 mmol/kg capsinoid group, and a 1.0 mmol/kg capsinoid group. A 20% lard food to which 1% cholesterol was added was administered as a feed to the control group. For the remaining three groups, capsaicin of 0.1 mmol per kg final concentration of the feed, capsinoid of 0.1 mmol per kg final concentration of the feed, and capsinoid of 1.0 mmol per kg final concentration of the feed, respectively, were added to the feed, similar to the control group. The capsinoid was a mixture of 4-hydroxy-3-methoxybenzyl (E)-8-methyl-6-nonenoate and 4-hydroxy-3-methoxybenzyl 8-methylnonanoate in about 2:1 ratio.
# (§2) The above groups each comprising six rats were subjected to pair feeding for four weeks. Breeding of the experimental animals was conducted in each individual cage and, during the breeding period, body weight was measured once a week and ingested amount of the feed was calculated by deducting the residue from the administered amount. Feces were collected for three days before dissection. After completion of breeding, the rats were sacrificed and dissected. Blood was collected. The liver, the fat around the kidney, and the fat around the epididymis were each separately excised and weighed. Furthermore, the ratio of the excised organs to the total body weight was calculated. Unless otherwise mentioned, the results in the following tables are shown in terms of mean value±standard deviation and, statistically, test of significance was conducted at p<0.05 by ANOVA and Duncan's multiple range test. In the tables, * means p<0.05.
# male Wistar strain rats [2] = assay: Excretion of cholesterol into feces during three days before dissection; conditions: 0.1 mmol per kg feed, mean ± SD
# Protocol: as §1
# The above groups each comprising six rats were subjected to pair feeding for four weeks. Breeding of the experimental animals was conducted in each individual cage and, during the breeding period, body weight was measured once a week and ingested amount of the feed was calculated by deducting the residue from the administered amount. Feces were collected for three days before dissection. After completion of breeding, the rats were sacrificed and dissected. Blood was collected. […] Furthermore, the ratio of the excised organs to the total body weight was calculated. […]
# male Wistar strain rats [3] = assay: Influence on serum cholesterol and arteriosclerosis index; conditions: 0.1 mmol per kg feed, four weeks, * p<0.05
# Protocol: as §1, §2
# Blood was collected from the experimental animals bred as above and total cholesterol (T-chol) and HDL cholesterol (HDL-chol) in the serum was measured. More specifically, total cholesterol and HDL cholesterol were measured according to a method disclosed in “Akiko Tsujihara and Yumiko Tani: Influence of yucca saponin and pure konjak powder on lipid metabolism of rats fed with a high-fat and high-cholesterol feed: Eiyo Shokuryo Gakkaishi, vol. 51, pp. 157-163 (1998)”. The Arteriosclerosis index was calculated by (T-chol-HDL-chol)/(HDL-chol). The results are shown in Table 4, including the amount of triglyceride in the serum (TG).
# [4] = Breeding process: body weight and ingested amount of feed in rats on 20% lard food with 1% cholesterol; conditions: 0.1 mmol per kg feed, mean ± SD
# Protocol: as §1, §2
smiles,measurement,setting,value
"COc1cc(CNC(=O)CCCC/C=C/C(C)C)ccc1O [Capsaicin, capsaicin]",Fat (g) around Epididymis,male Wistar strain rats [1]; mean ± SD,4.6 ± 0.5 g
same,Fat (g) around Kidney,male Wistar strain rats [1]; mean ± SD,3.8 ± 0.6 g
same,Liver,male Wistar strain rats [1]; mean ± SD,14.4 ± 0.9 g
same,Fat (%) around Epididymis,male Wistar strain rats [1]; ratio to total body weight,1.3 ± 0.1%
same,Fat (%) around Kidney,male Wistar strain rats [1]; ratio to total body weight,1.0 ± 0.1%
same,Liver (%),"male Wistar strain rats [1]; ratio to total body weight, * p<0.05",3.9 ± 0.1* %
same,"Cholesterol in Feces, Excreted Amount",male Wistar strain rats [2],240 ± 27 mg/3 days
same,"Cholesterol in Feces, Excreted Rate",male Wistar strain rats [2],48.6 ± 3.4%
same,Arteriosclerosis Index,male Wistar strain rats [3]; (T-chol-HDL-chol)/(HDL-chol),1.2 ± 0.4
same,HDL-chol (HDL cholesterol in serum),"male Wistar strain rats [3]; serum, mean ± SD",34.2 ± 6.5* mg/dl
same,T-chol (total cholesterol in serum),"male Wistar strain rats [3]; serum, mean ± SD",71.2 ± 8.1* mg/dl
same,TG (triglyceride in the serum),"male Wistar strain rats [3]; serum, mean ± SD",25.5 ± 5.3* mg/dl
same,Body Weight (g) on Dissected Day,[4]; four weeks,367 ± 12 g
same,Percentage Increase in Body Weight,[4]; four weeks,133 ± 4%
same,Body Weight (g) on Final Day of Breeding,[4]; pair feeding four weeks,392 ± 11 g
